Data on 2 compounds can be found in article doi:10.1101/2020.09.01.277368v1, “Disulfiram inhibits M. tuberculosis growth by altering methionine pool, redox status and host-immune response” (biorxiv, 2020).

The target in test [1] is T1, MetA (HSAT, homoserine acetyl transferase, Rv3341) (Mycobacterium tuberculosis, UniProt P9WJY9).
T1 construct: gene metXA
The experiment in a line: endpoint DTNB CoA release assay. The class given is biochemical. As to conditions: read-out: % inhibition at 100 μM.

The target in test [2] is T1, MetA (HSAT, homoserine acetyl transferase, Rv3341). The experiment in a line: ThermoFluor, SYPRO Orange. The class given is binding.

pKd: −log10 of the molar value.

T1 sequence (P9WJY9 whole entry, looked up): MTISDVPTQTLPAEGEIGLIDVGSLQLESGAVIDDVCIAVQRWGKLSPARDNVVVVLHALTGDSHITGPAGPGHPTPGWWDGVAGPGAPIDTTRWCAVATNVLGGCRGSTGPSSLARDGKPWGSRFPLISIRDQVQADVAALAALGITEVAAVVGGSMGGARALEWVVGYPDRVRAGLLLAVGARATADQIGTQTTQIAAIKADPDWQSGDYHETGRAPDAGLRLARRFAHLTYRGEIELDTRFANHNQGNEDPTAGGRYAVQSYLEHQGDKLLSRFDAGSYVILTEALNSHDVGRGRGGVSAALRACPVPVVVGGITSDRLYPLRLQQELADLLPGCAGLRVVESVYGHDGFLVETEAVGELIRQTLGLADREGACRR

In the case of `CCN(CC)C(=S)SSC(=S)N(CC)CC` [DIS, disulfiram], the inhibition at 100 µM in test [1] was above 50%. In test [2], this compound showed a negative logarithm of the Kd (pKd) of 4.28.
As to `CN(C)C(=S)SSC(=S)N(C)C` [NSC1771, thiram], the inhibition at 100 µM in test [1] is above 50%.
